The values that follow come from PMC4977052, “On the Utility of ToxCast™ and ToxPi as Methods for Identifying New Obesogens” (Environmental Health Perspectives, 2016).

Like-named read-outs stand apart in the source and are kept apart here.

Test [1] concerns PPARγ. The settings on record: cited from earlier work.
In test [2] the test system is PPARγ. The settings on record: ToxCast 2014 release, ref Filer et al. 2014, cited from earlier work.
The subject of the next test is Human PPARγ. The settings on record: cited from earlier work.
Another test has as its target T1, GAL4-mPPARγ (Mus musculus, UniProt P37238).
T1 construct: expressed in transfected cells; host or cells: COS7
Briefly: GAL4-mPPARγ activation, transient transfection luciferase reporter in COS7 cells. In kind it is cell-based. As for the experimental part: pCMX-Gal4, pCMX-Gal4-mPPARγ, and pCMX-Gal4-hRXRα were previously described ([Grün et al. 2006]). Transient transfections were performed in COS7 cells as described ([Chamorro-García et al. 2012]). Briefly, COS7 cells were seeded at 15,000 cells per well in 96-well tissue culture plates in 10% calf bovine serum. The following day, cells were transfected in Opti-MEM at ~ 90% confluency. One microgram of CMX-GAL4 effector plasmid was co-transfected with 5 μg tk-(MH100)4-luciferase reporter and 5 μg of CMX-β-galactosidase transfection control plasmids in Opti-MEM® using Lipofectamine® 2000 reagent (Invitrogen™ Life Technologies, Carlsbad, CA, USA), following the manufacturer’s recommended protocol. All chemicals were solvated in dimethyl sulfoxide (DMSO). After overnight incubation, the medium was replaced with Dulbecco’s Modified Eagle Medium (DMEM; HyClone, Logan, UT, USA), 10% resin charcoal stripped fetal bovine serum (FBS) plus ligands at concentrations indicated in the figure legends for an additional 24 hr. DMSO concentration was maintained at 0.05% across all chemical treatments. Cells were lysed and assayed for luciferase and β-galactosidase activity as previously described ([Forman et al. 1995]). All transfections were performed in triplicate and reproduced in multiple experiments. Data are reported as fold induction or reduction over vehicle ([…]) controls ± SEM (standard error of the mean) using standard propagation of error ([Bevington and Robinson 2003]). […] The EC50, EC10, IC50, and IC10 values from NCGC and ToxCast™ are reported from gain AC50 and AC10 values in the ToxCast™ 2014 release ([Filer et al. 2014]).
Figure 1 ToxCast™ Chemical Activity on PPARγ. The ability of a graded dose series of ToxCast™ chemicals to (A) activate or (B) antagonize GAL4-mPPARγ was tested in transiently transfected COS7 cells. (A, B) Data points are averages of triplicate transfections (three biological replicates). […] Data are depicted as (A) fold induction or (B) reduction over vehicle (0.05% DMSO) controls ± SEM. (A) ToxCast™ chemicals were tested in 3-fold serial dilutions from 100 μM through 0.137 μM, with the final data point being 0.05% DMSO. Rosiglitazone serves as a positive control activator. (B) ToxCast™ chemicals were tested in 3-fold serial dilutions from 100 μM, in competition with 50 nM rosiglitazone (Rosi). […] (C) EC50, EC10, IC50, and IC10 values calculated from A and B are reported and compared to commercial assays (see Figure S1). Note: ATG, Attagene GAL-PPARγ activation assay; NCGC, GeneBLAzer® agonist (EC values) or antagonist (IC values) assays. Triphenyltin was previously published ([Kanayama et al. 2005]).
Figure 4 ToxPi Chemical Activity on PPARγ and RXRα. The ability of a graded dose series of ToxPi chemicals to activate (A) GAL4-mPPARγ or (B) GAL4-hRXRα was tested in transiently transfected COS7 cells. (A, B) Data points are averages of triplicate transfections (three biological replicates). […] ToxPi chemicals were tested in 3-fold serial dilutions from 100 μM through 0.137 μM, with the final data point being 0.05% DMSO. Data are depicted as fold induction over vehicle (0.05% DMSO) controls ± SEM. (A) Rosiglitazone serves as a positive control activator for GAL4-mPPARγ. (B) LG100268 (2-[1-(3,5,5,8,8-Pentamethyl-5,6,7,8-tetrahydro-2-naphthyl)cyclopropyl]pyridine-5-carboxylic acid) serves as a positive control activator for GAL4-hRXRα. (C) EC50 and EC10 values calculated from A and B are reported and compared to other assays (see Figure S1). ATG, Attagene GAL-PPARγ or GAL-RXRα activation assay; NCGC, GeneBLAzer® GAL-PPARγ or GAL-RXRα activation assays. Triphenyltin was previously published ([Kanayama et al. 2005]).

Where [3] appears, read: ToxCast 2014 release, ref Filer et al. 2014, read-out: Attagene AC50 (panel B, with Z-Score Correction ranking).
Setting [4] is: read-out: Tox21/NCGC AC50 (panel B).
Where [5] appears, read: ToxCast 2014 release, ref Filer et al. 2014, read-out: Attagene AC50 (panel A, w/o Z-Score Correction ranking).
Setting [6] is: direct binding, ToxCast 2014 release, ref Filer et al. 2014, read-out: NovaScreen AC50 (panel A).
The mark [7] stands for this setting: direct binding, ToxCast 2014 release, ref Filer et al. 2014, read-out: NovaScreen AC50 (panel B).
[8] abbreviates: read-out: Tox21/NCGC AC50 (panel A).

T1 sequence (P37238 with tags, fused parts or gaps limits assumed): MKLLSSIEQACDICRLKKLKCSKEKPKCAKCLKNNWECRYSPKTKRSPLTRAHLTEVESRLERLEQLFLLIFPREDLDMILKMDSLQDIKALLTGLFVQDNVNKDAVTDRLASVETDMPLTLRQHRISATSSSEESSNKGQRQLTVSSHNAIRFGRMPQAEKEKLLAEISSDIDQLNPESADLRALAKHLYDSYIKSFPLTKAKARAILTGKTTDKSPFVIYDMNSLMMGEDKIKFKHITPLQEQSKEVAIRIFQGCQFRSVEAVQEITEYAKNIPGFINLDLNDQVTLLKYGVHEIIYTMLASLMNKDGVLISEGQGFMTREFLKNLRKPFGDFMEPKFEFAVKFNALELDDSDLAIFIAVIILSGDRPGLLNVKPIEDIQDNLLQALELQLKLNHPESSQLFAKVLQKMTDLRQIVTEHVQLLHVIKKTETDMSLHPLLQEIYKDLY

Take `O=C(O)CCCOc1ccc(Cl)cc1Cl` [2,4-DB]: the AC50 in the test with PPARγ [1] (setting [3]) is 33.4 µM; in the test with PPARγ [2] (setting [4]) it was 16.7 µM.

As for `Oc1ccccc1-c1ccccc1` [2-Phenylphenol], the AC50 with PPARγ [1] (setting [5]) was 0.1 µM; in the test with PPARγ [1] (setting [3]), 0.1 µM; with Human PPARγ (setting [6]), 1.1 µM; in the test on Human PPARγ (setting [7]), 1.1 µM.

In the case of `O=C(O)c1cc(Oc2ccc(C(F)(F)F)cc2Cl)ccc1[N+](=O)[O-]` [Acifluorfen], the AC50 was 37.1 µM with PPARγ [1] (setting [3]) and 13.5 µM with Human PPARγ (setting [7]).

Turning to `CCNc1nc(NC(C)C)nc(SC)n1` [Ametryn], the AC50 is 15.1 µM in the test on PPARγ [1] (setting [5]), 31.8 µM in the test on Human PPARγ (setting [6]) and 10.2 µM with PPARγ [2] (setting [8]).

Consider `CCOc1nc(F)cc2nc(S(=O)(=O)Nc3c(Cl)cccc3Cl)nn12` [Diclosulam], for which the figures for the AC50 in the test on PPARγ [1] (setting [3]) and with PPARγ [2] (setting [4]) were 26.3 µM and 2.9 µM, respectively.

Turning to `CCOP(=S)(OCC)SCCSCC` [Disulfoton], the AC50 in the test with PPARγ [1] (setting [3]) was 81.8 µM; in the test with Human PPARγ (setting [7]), 1.6 µM.

With `CCCSP(=O)(OCC)SCCC` [Ethoprop], the AC50 with PPARγ [1] (read-out: Attagene AC50 (panel B, with Z-Score Correction ranking)) was 114 µM; in the test on Human PPARγ (read-out: NovaScreen AC50 (panel B)) it was 3.9 µM.

For `CCOP(=O)(NC(C)C)Oc1ccc(SC)c(C)c1` (stereo not shown) [Fenamiphos], the AC50 in the test on PPARγ [1] (setting [5]) was 35.1 µM; in the test on PPARγ [1] (setting [3]), 35.1 µM; in the test with Human PPARγ (setting [6]), 21.2 µM; in the test with Human PPARγ (setting [7]), 21.2 µM; in the test with PPARγ [2] (setting [8]) it was 14.7 µM; in the test with PPARγ [2] (setting [4]) it was 14.7 µM.

For the molecule `N#Cc1nn(-c2c(Cl)cc(C(F)(F)F)cc2Cl)c(N)c1[S+]([O-])C(F)(F)F` (stereo not shown) [Fipronil], the AC50 with PPARγ [1] (setting [5]) is 39.3 µM.

With `CCCCOC(=O)C(C)Oc1ccc(Oc2ccc(C(F)(F)F)cn2)cc1` (stereo not shown) [Fluazifop-butyl], the AC50 is 2.8 µM in the test on PPARγ [1] (setting [3]) and 0.7 µM with Human PPARγ (setting [7]).

As to `CC(C)Oc1cccc(NC(=O)c2ccccc2C(F)(F)F)c1` [Flutolanil], the figures for the AC50 in the test with PPARγ [1] (setting [5]), in the test with Human PPARγ (setting [6]) and in the test on PPARγ [2] (setting [8]) were 8.5 µM, 10.3 µM and 34.1 µM, respectively.

On to `CCCCC(O)(Cn1cncn1)c1ccc(Cl)cc1Cl` (stereo not shown) [Hexaconazole], for which the AC50 was 1.2 µM in the test with PPARγ [1] (setting [5]), 0.3 µM in the test on Human PPARγ (setting [6]) and 0.1 µM with PPARγ [2] (setting [8]).

Regarding `CC(C)NC(=O)N1CC(=O)N(c2cc(Cl)cc(Cl)c2)C1=O` [Iprodione], the AC50 was 20.9 µM with PPARγ [1] (setting [5]); 20.9 µM in the test with PPARγ [1] (setting [3]); 2.4 µM with Human PPARγ (setting [6]); 2.4 µM in the test with Human PPARγ (setting [7]); 45.5 µM in the test on PPARγ [2] (setting [8]); 45.5 µM in the test on PPARγ [2] (setting [4]).

For `CS(=O)(=O)c1cc(C(F)(F)F)ccc1C(=O)c1cnoc1C1CC1` [Isoxaflutole], the AC50 in the test on PPARγ [1] (setting [3]) is 10.4 µM; with PPARγ [2] (setting [4]), 26.4 µM.

In the case of `CCCCOC(=O)c1ccccc1C(=O)O` [MBP], the results for the AC50 in the test on PPARγ [1] (setting [3]) and in the test with Human PPARγ (setting [7]) were 18.2 µM and 0.1 µM, respectively.

Consider `Cc1cc(Cl)ccc1OCC(=O)O` [MCPA], for which the AC50 with PPARγ [1] (setting [5]) is 33.8 µM; in the test on PPARγ [1] (setting [3]), 33.8 µM; in the test with Human PPARγ (setting [6]), 0.1 µM; in the test with Human PPARγ (setting [7]) it was 0.1 µM; with PPARγ [2] (setting [8]), 253 µM; in the test with PPARγ [2] (setting [4]), 253 µM.

Turning to `CCCCC(CC)COC(=O)c1ccccc1C(=O)O` (stereo not shown) [MEHP], the AC50 in the test on PPARγ [1] (setting [5]) was […]; in the test with Human PPARγ (setting [6]), […]; in the test on PPARγ [2] (setting [8]), […].

As to `COc1nn(CSP(=S)(OC)OC)c(=O)s1` [Methidathion], the AC50 in the test with PPARγ [1] (setting [5]) is 30.6 µM; in the test with PPARγ [1] (setting [3]) it was 30.6 µM; with Human PPARγ (setting [6]) it was 0.1 µM; with Human PPARγ (setting [7]), 0.1 µM.

Take `CCSC(=O)N1CCCCCC1` [Molinate]: the AC50 in the test with PPARγ [1] (setting [3]) was 41.3 µM; in the test with Human PPARγ (setting [7]) it was 0.1 µM.

Regarding `O=C(O)c1c(Cl)ccc2cc(Cl)cnc12` [Quinclorac], the AC50 was 0.03 µM in the test on PPARγ [1] (setting [3]) and 0.0002 µM with Human PPARγ (setting [7]).

For `C=CCC1=C(C)[C@@H](OC(=O)[C@@H]2[C@@H](C=C(C)C)C2(C)C)CC1=O` [S-Bioallethrin], the “Activation COS7 (result in words), ToxCast PPARγ list” value at GAL4-mPPARγ (Cos-7 transient transfection, PPARγ activation or antagonism assays (Table 1, Table S6)) is listed as “Inactive”. For the same molecule, the AC50 in the test with PPARγ [1] (PPARγ, NA = not active, ref Filer et al. 2014, read-out: ATG Agonist AC50, 2014 Release) is 9.2 µM; with PPARγ [1] (PPARγ, NA = not active, ref Knudsen et al. 2011, read-out: ATG Agonist AC50, 2011 Release) it was 9.2 µM.

For `CCNc1nc(Cl)nc(NCC)n1` [Simazine], the AC50 with PPARγ [1] (setting [3]) was 116 µM; with Human PPARγ (setting [7]), 1.5 µM.

On to `CC(C)=CC1C(C(=O)OCN2C(=O)C3=C(CCCC3)C2=O)C1(C)C` (stereo not shown) [Tetramethrin], for which the AC50 in the test on PPARγ [1] (setting [5]) was 0.02 µM; with Human PPARγ (setting [6]), 0.3 µM; in the test on PPARγ [2] (setting [8]) it was 21.6 µM.

Regarding `COP(=O)(OC)C(O)C(Cl)(Cl)Cl` (stereo not shown) [Trichlorfon], the AC50 in the test on PPARγ [1] (setting [5]) is 58.4 µM; in the test on PPARγ [2] (setting [8]) it was 0.05 µM.

As for `O=C(O)COc1nc(Cl)c(Cl)cc1Cl` [Triclopyr], the AC50 is 54.7 µM with PPARγ [1] (setting [5]); 54.7 µM in the test with PPARγ [1] (setting [3]); 2.1 µM in the test with Human PPARγ (setting [6]); 2.1 µM in the test with Human PPARγ (setting [7]); 41.5 µM in the test on PPARγ [2] (setting [8]); 41.5 µM with PPARγ [2] (setting [4]).

Turning to `Oc1cc(Cl)ccc1Oc1ccc(Cl)cc1Cl` [Triclosan], at GAL4-mPPARγ (COS7, 100 μM through 0.137 μM), the “Activation of GAL4-PPARγ (text)” value was “inactive”. The values for the AC50 in the test with PPARγ [1] (setting [5]), with Human PPARγ (setting [6]) and in the test with PPARγ [2] (setting [8]) were 8.6 µM, 7.1 µM and 25.8 µM, respectively.
